Data published in patent US8691849B2, “3-azabicyclo[3.1.0]hexyl derivatives as modulators of metabotropic glutamate receptors” (Janssen Pharmaceuticals, Inc., priority 2008, dated 2014).

Key:
human mGluR2 receptor = target: T1, human mGluR2 receptor (Homo sapiens, UniProt Q14416); assay: [35S]GTPγS binding assay (PAM assay), membranes from CHO cells transfected with human mGluR2; format: biochemical; conditions: in presence of glutamate at predetermined EC25 concentration; averages of duplicate values of 11-concentration response curves; read-out: GTPγS - hR2 PAM pEC50 (converted)
T1 construct: expressed in transfected cells; host or cells: CHO cells
From the text: The compounds provided in the present invention are positive allosteric modulators of mGluR2. These compounds appear to potentiate glutamate responses by binding to an allosteric site other than the glutamate binding site. The response of mGluR2 to a concentration of glutamate is increased when compounds of Formula (I) are present. Compounds of Formula (I) are expected to have their effect substantially at mGluR2 by virtue of their ability to enhance the function of the receptor. The behaviour of positive allosteric modulators tested at mGluR2 using the [^35S]GTPγS binding assay method described below and which is suitable for the identification of such compounds, and more particularly the compounds according to Formula (I), are shown in Table 2.
The [^35S]GTPγS binding assay is a functional membrane-based assay used to study G-protein coupled receptor (GPCR) function whereby incorporation of a non-hydrolysable form of GTP, [^35S]GTPγS (guanosine 5′-triphosphate, labelled with […] ^35S), is measured. The G-protein α subunit catalyzes the exchange of guanosine 5′-diphosphate (GDP) by guanosine triphosphate (GTP) and on activation of the GPCR by an agonist, [^35S]GTPγS, becomes incorporated and cannot be cleaved to continue the exchange cycle (Harper (1998) Current Protocols in Pharmacology 2.6.1-10, John Wiley & Sons, Inc.). […] Here we describe the use of the [^35S]GTPγS binding assay using membranes from cells transfected with the human mGluR2 receptor and adapted from Schaffhauser et al ((2003) Molecular Pharmacology 4:798-810) for the detection of the positive allosteric modulation (PAM) properties of the compounds of this invention.
CHO-cells were cultured to pre-confluence and stimulated with 5 mM butyrate for 24 hours, prior to washing in PBS, and then collected by scraping in homogenisation buffer (50 mM Tris-HCl buffer, pH 7.4, 4° C.). […] Protein concentration was determined by the Bradford method (Bio-Rad, USA) with bovine serum albumin as standard.
Measurement of mGluR2 positive allosteric modulatory activity of test compounds in membranes containing human mGluR2 was performed using frozen membranes that were thawed and briefly homogenized prior to pre-incubation in 96-well microplates (15 μg/assay well, 30 minutes, 30° C.) in assay buffer (50 mM HEPES pH 7.4, 100 mM NaCl, 3 mM MgCl2, 50 μM GDP, 10 μg/ml saponin,) with increasing concentrations of positive allosteric modulator (from 0.3 nM to 50 μM) and either a minimal pre-determined concentration of glutamate (PAM assay), or no added glutamate. […] Filters were then air-dried, and 40 μl of liquid scintillation cocktail (Microscint-O) was added to each well, and membrane-bound [^35S]GTPγS was measured in a 96-well scintillation plate reader (Top-Count, Perkin-Elmer, USA). […]

T1 sequence (Q14416 19-872): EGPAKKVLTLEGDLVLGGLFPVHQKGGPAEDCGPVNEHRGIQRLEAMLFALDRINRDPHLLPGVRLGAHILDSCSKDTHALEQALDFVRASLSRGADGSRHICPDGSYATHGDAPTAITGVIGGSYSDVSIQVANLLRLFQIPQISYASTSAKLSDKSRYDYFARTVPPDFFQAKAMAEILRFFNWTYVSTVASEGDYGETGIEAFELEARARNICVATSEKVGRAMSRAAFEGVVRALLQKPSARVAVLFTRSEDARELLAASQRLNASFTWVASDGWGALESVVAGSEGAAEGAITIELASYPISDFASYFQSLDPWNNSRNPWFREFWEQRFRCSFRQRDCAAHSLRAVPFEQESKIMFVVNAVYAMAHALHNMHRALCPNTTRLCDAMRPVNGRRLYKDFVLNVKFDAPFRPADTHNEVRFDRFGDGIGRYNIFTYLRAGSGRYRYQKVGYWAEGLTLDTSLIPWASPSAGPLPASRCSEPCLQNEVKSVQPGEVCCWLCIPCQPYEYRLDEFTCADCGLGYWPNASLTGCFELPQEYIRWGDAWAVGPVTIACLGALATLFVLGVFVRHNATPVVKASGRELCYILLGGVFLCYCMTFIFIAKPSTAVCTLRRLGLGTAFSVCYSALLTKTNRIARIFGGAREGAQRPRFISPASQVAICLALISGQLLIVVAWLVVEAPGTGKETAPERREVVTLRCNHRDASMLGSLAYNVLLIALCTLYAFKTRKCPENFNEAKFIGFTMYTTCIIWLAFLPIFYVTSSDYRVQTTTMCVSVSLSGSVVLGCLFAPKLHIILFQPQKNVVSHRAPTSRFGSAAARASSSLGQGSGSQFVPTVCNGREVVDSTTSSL

EC50 (human mGluR2 receptor)	melting point	SMILES
123 nM	–	CCCCn1ccc(N2C[C@@H]3[C@@H](COc4cc(Cl)ccc4Cl)[C@@H]3C2)c(Cl)c1=O [Compound E2]
126 nM	–	CCCCn1ccc(N2C[C@@H]3[C@H](COc4cc(Cl)ccc4Cl)[C@@H]3C2)c(Cl)c1=O [Compound E3]
89.1 nM	185.9 °C	CCCCn1ccc(N2C[C@@H]3[C@H](C2)[C@H]3c2ccccc2)c(Cl)c1=O [Compound E4, (2aα,3α,3aα)-1-Butyl-3-chloro-4-(6-phenyl-3-aza-bicyclo[3.1.0]hex-3-yl)-1H-pyridin-2-one]
275 nM	172.2 °C	O=c1c(Cl)c(N2CC3[C@H](C2)[C@H]3c2ccccc2)ccn1CC1CC1 (stereo partly drawn) [Compound E1, (2aα,3α,3aα)-3-Chloro-1-cyclopropylmethyl-4-(6-phenyl-3-aza-bicyclo[3.1.0]hex-3-yl)-1H-pyridin-2-one]
